According to patent US5281604A, “Angiotensin II receptor blocking 2,3,6-substituted quinazolinones” (American Cyanamid Company, priority 1993, dated 1994):

Molecular target: T1, Angiotensin II Receptor (Bos taurus, UniProt P25104)
T1 construct: beef adrenal glands are processed as follows: fresh adrenal glands received on crushed ice are cleaned of fatty tissues; tissue Maxwell-Cohen (local slaughter house); host or cells: beef adrenal cortex, microsomal membranes (100,000×g pellet)
T1 sequence (P25104 1-359): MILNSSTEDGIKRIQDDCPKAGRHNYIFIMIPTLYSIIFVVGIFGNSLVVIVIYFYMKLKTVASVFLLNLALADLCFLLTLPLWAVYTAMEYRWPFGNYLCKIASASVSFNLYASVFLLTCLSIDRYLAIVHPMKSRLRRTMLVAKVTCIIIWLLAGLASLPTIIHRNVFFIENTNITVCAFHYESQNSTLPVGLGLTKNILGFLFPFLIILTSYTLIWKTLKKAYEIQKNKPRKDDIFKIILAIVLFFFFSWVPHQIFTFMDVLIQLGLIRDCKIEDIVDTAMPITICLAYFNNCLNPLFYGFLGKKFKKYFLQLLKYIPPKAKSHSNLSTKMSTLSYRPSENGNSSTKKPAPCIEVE
Experiment: Receptor Binding Assay: displacement of [125I](Sar1,Ile8)AngII from beef adrenal cortex microsomal membranes
Conditions: 60 min room temperature
From the text: Beef adrenals are obtained from a local slaughter house (Maxwell-Cohen).
[^125 I](Sar^1,Ile^8)AngII, S.A. 2200 Ci/mmole, is purchased from Dupont (NEN®, Boston, Mass.). All unlabeled AngII analogs, Dimethylsulfoxide (DMSO), nucleotides, bovine serum albumin (BSA) are purchased from Sigma Chemical Co., St. Louis, Mo. U.S.A.
Approximately sixteen (16) to twenty (20) beef adrenal glands are processed as follows: fresh adrenal glands received on crushed ice are cleaned of fatty tissues and the tough membranes encapsulating the glands are removed and discarded. The brownish tissue forming the adrenal cortex is scraped off and finely minced with scissors before homogenization. Care is taken to avoid contamination with medullary tissue during dissection. The scraped cortices are suspended in twenty volumes of an ice-cold buffer medium consisting of 10 mM Tris.HCl (pH 7.4 at 22° C.) and containing 1.0 mM EDTA and 0.2M sucrose. Unless otherwise indicated, all subsequent operations are done at 4° C. […] The homogenate is centrifuged first at low speed (3,000×g) for 10 min. The resulting pellet is discarded and the supernatant fluid recentrifuged at 10,000×g for 15 minutes to give a P2 pellet. This P2 pellet is discarded and the liquid phase is carefully decanted off in clean centrifuge tubes and recentrifuged at high speed (100,000×g) for 60 min. The translucent final pellet is harvested and combined in a small volume (20-50.0 ml) of 50.0 mM Tris.HCl buffer, pH 7.2. A 100 ul aliquot is withdrawn and the protein content of the preparation is determined by the Lowry's method (Lowry, O. H., Rosebrough, N. F., Farr, A. L. and Randall, R. J., Protein measurement with Folin phenol reagent. J. Biol. Chem., […], 265-275, 1951). The pelleted membrane is reconstituted in 50.0 mM Tris.HCl buffer containing 0.1 mM of phenylmethylsulfonyl fluoride (PMSF) to give approximately a protein concentration of 2.5 mg per ml of tissue suspension. The membrane preparation is finally aliquoted in 1.0 ml volumes and stored at -70° C. until use in the binding assays.
The binding of [^125 I](Sar^1.Ile^8)AngII to microsomal membranes is initiated by the addition of reconstituted membranes (1:10 vols.) in freshly made 50.0 mM Tris.HCl buffer, pH 7.4 containing 0.25% heat inactivated bovine serum albumin (BSA): 80 ul membrane protein (10 to 20 ug/assay) to wells already containing 100 ul of incubation buffer (as described above) and 20 ul [^125 I](Sar^1,Ile^8)AmgII (Specific Activity, 2200 Ci/mmole) Non-specific binding is measured in the presence of 1.0 uM unlabeled (Sar^1,Ile^8)AngII, added in 20 ul volume. Specific binding for [^125 I](Sar^1,Ile^8) AngII is greater than 90%. In competition studies, experimental compounds are diluted in dimethylsulfoxide (DMSO) and added in 20 ul to wells before the introduction of tissue membranes. This concentration of DMSO is found to have no negative effects on the binding of [^ 125I] (Sar^1,Ile^8) AngII to the membranes. Assays are performed in triplicate. The wells are left undisturbed for 60 min. at room temperature. […] Presoaking the filter sheet in 0.1% polyethyleneimine in normal saline (PEI/Saline) greatly reduces the radioactivity retained by the filter blanks. […] The filters are removed from the filter grid and counted in a Parkard® Cobra Gamma Counder for 1 min. […] The binding data are analyzed by the non-linear interactive "LUNDON-1" program (LUNDON SOFTWARE Inc., Cleveland, Ohio U.S.A.).

Compound | IC50
CCCCc1nc2ccc([C@H]3OC[C@H]4[C@@H]3ON3[C@@H]4CCC3(C)C)cc2c(=O)n1Cc1ccc(-c2ccccc2-c2nnn[nH]2)cc1 (relative stereo) [Example 7, (1α, 3aα, 8aβ, 8bα)-2-Butyl-6-(octahydro-6,6-dimethylfuro[3,4-d]pyrrolo[1,2-b]isoxazol-1-yl)-3-[[2'-(1H-tetrazol-5-yl)[1,1'-biphenyl]-4-yl]methyl]-4 (3H)-quinazolinone] | 0.05 µM
CCCCc1nc2ccc(C3CC4C(c5ccc(C)cc5)=NOC4O3)cc2c(=O)n1Cc1ccc(-c2ccccc2-c2nnn[nH]2)cc1 (stereo not shown) [Example 12] | 0.1 µM
CCCCc1nc2ccc(C3CC4C(O3)ON(c3ccccc3)C4c3ccccc3)cc2c(=O)n1Cc1ccc(-c2ccccc2-c2nnn[nH]2)cc1 (stereo not drawn) [Example 10, (3α, 3aβ, 5β, 6aβ)-2-Butyl-6-(hexahydro-2,3-diphenylfuro[3,2-d]isoxazol-5-yl)-3-[[2'-(1H-tetrazol-5-yl)[1,1'-biphenyl]-4-yl]methyl]-4(3H)-quinazolinone] | 0.076 µM
CCCCc1nc2ccc(C3CC4C(O3)ON3C4CCC3(C)C)cc2c(=O)n1Cc1ccc(-c2ccccc2-c2nnn[nH]2)cc1 (stereo not shown) [Example 14] | 0.0319 µM
